Laboratory results: PubChem BioAssay (NCI)
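Step 1: Grow cells in 96-well plates. Step 2: Expose to compound for 48 hours at 5 concentrations. Step 3: Interpolate endpoints linearly; if unreached, use highest concentration. Definition used: TGI = concentration required for complete inhibition of growth.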

Legend:
Test in all cases: inhibition of tumour cell growth, NCI panel, 48 h
XF 498 CNS = test system: XF 498 CNS
MALME-3M melanoma = test system: MALME-3M melanoma
HOP-18 NSCLC = test system: HOP-18 NSCLC
SF-268 CNS = test system: SF-268 CNS
LXFL 529 NSCLC = test system: LXFL 529 NSCLC
SF-539 CNS = test system: SF-539 CNS
HCT-116 colon = test system: HCT-116 colon
KM20L2 colon = test system: KM20L2 colon
CCRF-CEM leukemia = test system: CCRF-CEM leukemia
EKVX NSCLC = test system: EKVX NSCLC
OVCAR-4 ovarian = test system: OVCAR-4 ovarian
A549 NSCLC = test system: A549 NSCLC
OVCAR-8 ovarian = test system: OVCAR-8 ovarian
NCI-H460 lung = test system: NCI-H460 lung
COLO 205 colon = test system: COLO 205 colon
RPMI-8226 leukemia = test system: RPMI-8226 leukemia
IGROV1 ovarian = test system: IGROV1 ovarian
NCI-H522 lung = test system: NCI-H522 lung
SF-295 CNS = test system: SF-295 CNS
ACHN renal = test system: ACHN renal
SK-OV-3 ovarian = test system: SK-OV-3 ovarian
HCT-15 colon = test system: HCT-15 colon
DLD-1 colon = test system: DLD-1 colon
SNB-19 CNS = test system: SNB-19 CNS
HL-60(TB) leukemia = test system: HL-60(TB) leukemia
SR leukemia = test system: SR leukemia
CAKI-1 renal = test system: CAKI-1 renal
SNB-75 CNS = test system: SNB-75 CNS
HCC-2998 colon = test system: HCC-2998 colon
UO-31 renal = test system: UO-31 renal
M14 melanoma = test system: M14 melanoma
OVCAR-5 ovarian = test system: OVCAR-5 ovarian
SNB-78 CNS = test system: SNB-78 CNS
M19-MEL melanoma = test system: M19-MEL melanoma
786-0 renal = test system: 786-0 renal
NCI-H23 lung = test system: NCI-H23 lung
HOP-62 NSCLC = test system: HOP-62 NSCLC
RXF 393 renal = test system: RXF 393 renal
KM12 colon = test system: KM12 colon
NCI-H226 lung = test system: NCI-H226 lung
SW-620 colon = test system: SW-620 colon
UACC-257 melanoma = test system: UACC-257 melanoma
LOX IMVI melanoma = test system: LOX IMVI melanoma
HT29 colon = test system: HT29 colon
DMS 273 small cell lung = test system: DMS 273 small cell lung
U251 CNS = test system: U251 CNS
DMS 114 small cell lung = test system: DMS 114 small cell lung
OVCAR-3 ovarian = test system: OVCAR-3 ovarian
SK-MEL-2 melanoma = test system: SK-MEL-2 melanoma
MOLT-4 leukemia = test system: MOLT-4 leukemia
UACC-62 melanoma = test system: UACC-62 melanoma
SK-MEL-5 melanoma = test system: SK-MEL-5 melanoma
HOP-92 NSCLC = test system: HOP-92 NSCLC
TK-10 renal = test system: TK-10 renal
HS 578T breast = test system: HS 578T breast
SK-MEL-28 melanoma = test system: SK-MEL-28 melanoma
NCI/ADR-RES ovarian = test system: NCI/ADR-RES ovarian
MDA-MB-435 = test system: MDA-MB-435
A498 renal = test system: A498 renal
BT-549 breast = test system: BT-549 breast
MDA-N = test system: MDA-N
PC-3 prostate = test system: PC-3 prostate
T-47D breast = test system: T-47D breast
MDA-MB-231 breast = test system: MDA-MB-231 breast
MCF7 breast = test system: MCF7 breast
SN12C renal = test system: SN12C renal
DU-145 prostate = test system: DU-145 prostate
K-562 leukemia = test system: K-562 leukemia

In the case of `CCNC(=O)/C=C/CCC#Cc1ccc(-c2ccc(-c3cccs3)s2)s1`, the TGI (XF 498 CNS) is reported as 7.19 µM, the TGI (MALME-3M melanoma) is reported as > 100 µM and the TGI (HOP-18 NSCLC) is reported as > 100 µM. For the same molecule, the TGI (SF-268 CNS) was > 100 µM, the TGI (LXFL 529 NSCLC) was > 100 µM and the TGI (SF-539 CNS) was > 100 µM. The TGI (HCT-116 colon) was > 100 µM, the TGI (KM20L2 colon) was > 100 µM and the TGI (CCRF-CEM leukemia) was > 100 µM. The TGI (EKVX NSCLC) was > 100 µM, the TGI (OVCAR-4 ovarian) was > 100 µM and the TGI (A549 NSCLC) was > 100 µM. For the same molecule, the TGI (OVCAR-8 ovarian) was > 100 µM, the TGI (NCI-H460 lung) was > 100 µM and the TGI (COLO 205 colon) was 3.19 µM. For the same molecule, the TGI (RPMI-8226 leukemia) was > 100 µM, the TGI (IGROV1 ovarian) was > 100 µM and the TGI (NCI-H522 lung) was > 100 µM. The TGI (SF-295 CNS) was > 100 µM, the TGI (ACHN renal) was > 100 µM and the TGI (SK-OV-3 ovarian) was > 100 µM. For the same molecule, the TGI (HCT-15 colon) was > 100 µM, the TGI (DLD-1 colon) was > 100 µM and the TGI (SNB-19 CNS) was > 100 µM. For the same molecule, the TGI (HL-60(TB) leukemia) was > 100 µM, the TGI (SR leukemia) was > 100 µM and the TGI (CAKI-1 renal) was > 100 µM. For the same molecule, the TGI (SNB-75 CNS) was > 100 µM, the TGI (HCC-2998 colon) was > 100 µM and the TGI (UO-31 renal) was > 100 µM. The TGI (M14 melanoma) was > 100 µM, the TGI (OVCAR-5 ovarian) was > 100 µM and the TGI (SNB-78 CNS) was > 100 µM. The TGI (M19-MEL melanoma) was > 100 µM, the TGI (786-0 renal) was > 100 µM and the TGI (NCI-H23 lung) was > 100 µM. The TGI (HOP-62 NSCLC) was > 100 µM, the TGI (RXF 393 renal) was > 100 µM and the TGI (KM12 colon) was > 100 µM. For the same molecule, the TGI (NCI-H226 lung) was > 100 µM, the TGI (SW-620 colon) was > 100 µM and the TGI (UACC-257 melanoma) was > 100 µM. The TGI (LOX IMVI melanoma) was > 100 µM, the TGI (HT29 colon) was > 100 µM and the TGI (DMS 273 small cell lung) was > 100 µM. For the same molecule, the TGI (U251 CNS) was > 100 µM, the TGI (DMS 114 small cell lung) was > 100 µM and the TGI (OVCAR-3 ovarian) was > 100 µM. For the same molecule, the TGI (SK-MEL-2 melanoma) was > 100 µM, the TGI (MOLT-4 leukemia) was > 100 µM and the TGI (UACC-62 melanoma) was > 100 µM. For the same molecule, the TGI (SK-MEL-5 melanoma) was > 100 µM, the TGI (HOP-92 NSCLC) was > 100 µM and the TGI (TK-10 renal) was > 100 µM.
With `O=C1C=C2CO[C@H]3OC[C@H](O)[C@@H]1[C@@H]23` the TGI (HS 578T breast) was > 100 µM, the TGI (MALME-3M melanoma) was 55 µM and the TGI (SF-268 CNS) was > 100 µM. For the same molecule, the TGI (HCT-116 colon) was > 100 µM, the TGI (SK-MEL-28 melanoma) was > 100 µM and the TGI (CCRF-CEM leukemia) was 66.8 µM. The TGI (EKVX NSCLC) was > 100 µM, the TGI (A549 NSCLC) was > 100 µM and the TGI (OVCAR-8 ovarian) was > 100 µM. For the same molecule, the TGI (NCI-H460 lung) was > 100 µM, the TGI (COLO 205 colon) was 30 µM and the TGI (RPMI-8226 leukemia) was 44.8 µM. For the same molecule, the TGI (NCI/ADR-RES ovarian) was > 100 µM, the TGI (IGROV1 ovarian) was > 100 µM and the TGI (MDA-MB-435) was > 100 µM. For the same molecule, the TGI (NCI-H522 lung) was 33.1 µM, the TGI (SF-295 CNS) was > 100 µM and the TGI (ACHN renal) was > 100 µM. For the same molecule, the TGI (SK-OV-3 ovarian) was > 100 µM, the TGI (HCT-15 colon) was > 100 µM and the TGI (SNB-19 CNS) was > 100 µM. The TGI (HL-60(TB) leukemia) was 76.1 µM, the TGI (SR leukemia) was 63.1 µM and the TGI (A498 renal) was > 100 µM. The TGI (BT-549 breast) was > 100 µM, the TGI (MDA-N) was > 100 µM and the TGI (CAKI-1 renal) was 89 µM. The TGI (SNB-75 CNS) was > 100 µM, the TGI (HCC-2998 colon) was > 100 µM and the TGI (UO-31 renal) was > 100 µM. The TGI (PC-3 prostate) was > 100 µM, the TGI (M14 melanoma) was > 100 µM and the TGI (OVCAR-5 ovarian) was > 100 µM. The TGI (T-47D breast) was 67.3 µM, the TGI (MDA-MB-231 breast) was > 100 µM and the TGI (786-0 renal) was > 100 µM. The TGI (NCI-H23 lung) was > 100 µM, the TGI (HOP-62 NSCLC) was > 100 µM and the TGI (RXF 393 renal) was 42 µM. The TGI (KM12 colon) was > 100 µM, the TGI (SW-620 colon) was > 100 µM and the TGI (MCF7 breast) was > 100 µM. For the same molecule, the TGI (UACC-257 melanoma) was 86.4 µM, the TGI (LOX IMVI melanoma) was > 100 µM and the TGI (HT29 colon) was > 100 µM. For the same molecule, the TGI (U251 CNS) was 63.6 µM, the TGI (SN12C renal) was 90 µM and the TGI (OVCAR-3 ovarian) was > 100 µM. For the same molecule, the TGI (SK-MEL-2 melanoma) was 37.3 µM, the TGI (MOLT-4 leukemia) was > 100 µM and the TGI (DU-145 prostate) was > 100 µM. The TGI (K-562 leukemia) was > 100 µM, the TGI (UACC-62 melanoma) was > 100 µM and the TGI (SK-MEL-5 melanoma) was > 100 µM. The TGI (HOP-92 NSCLC) was > 100 µM and the TGI (TK-10 renal) was > 100 µM.
For `C=C(C)C(=O)OC1CC2(C)OC2CC(OC(C)=O)/C(C)=C/C2OC(=O)C(=C)C21` (centres undefined), the TGI (HS 578T breast) was 30.6 µM, the TGI (MALME-3M melanoma) was 3.23 µM and the TGI (SF-268 CNS) was 15.3 µM. The TGI (SF-539 CNS) was 8.57 µM, the TGI (HCT-116 colon) was 3.61 µM and the TGI (SK-MEL-28 melanoma) was 1.94 µM. The TGI (CCRF-CEM leukemia) was 0.654 µM, the TGI (EKVX NSCLC) was 18.2 µM and the TGI (OVCAR-4 ovarian) was 23.7 µM. The TGI (A549 NSCLC) was 42.5 µM, the TGI (OVCAR-8 ovarian) was 18.7 µM and the TGI (NCI-H460 lung) was 9.29 µM. For the same molecule, the TGI (COLO 205 colon) was 3.42 µM, the TGI (RPMI-8226 leukemia) was 3.49 µM and the TGI (NCI/ADR-RES ovarian) was 18.2 µM. For the same molecule, the TGI (IGROV1 ovarian) was 18.6 µM, the TGI (MDA-MB-435) was 7.5 µM and the TGI (NCI-H522 lung) was 0.851 µM. The TGI (SF-295 CNS) was 30.3 µM, the TGI (ACHN renal) was 3.34 µM and the TGI (SK-OV-3 ovarian) was > 91.3 µM. It also gave a TGI (HCT-15 colon) of 1.86 µM, a TGI (SNB-19 CNS) of 28.7 µM and a TGI (HL-60(TB) leukemia) of 1.14 µM. For the same molecule, the TGI (SR leukemia) was 4.47 µM, the TGI (A498 renal) was 26.4 µM and the TGI (BT-549 breast) was 5.41 µM. It also gave a TGI (MDA-N) of 8.59 µM, a TGI (CAKI-1 renal) of 9.84 µM and a TGI (SNB-75 CNS) of 42.3 µM. The TGI (HCC-2998 colon) was 15.1 µM, the TGI (UO-31 renal) was 12.5 µM and the TGI (PC-3 prostate) was 22.5 µM. The TGI (M14 melanoma) was 9.39 µM, the TGI (OVCAR-5 ovarian) was 17.5 µM and the TGI (T-47D breast) was 14.4 µM. For the same molecule, the TGI (MDA-MB-231 breast) was 18.5 µM, the TGI (786-0 renal) was 6.37 µM and the TGI (NCI-H23 lung) was 19.4 µM. The TGI (HOP-62 NSCLC) was 26.5 µM, the TGI (RXF 393 renal) was 4.64 µM and the TGI (KM12 colon) was 33.7 µM. For the same molecule, the TGI (NCI-H226 lung) was 48 µM, the TGI (SW-620 colon) was 6.98 µM and the TGI (MCF7 breast) was 12.2 µM. The TGI (UACC-257 melanoma) was 18.5 µM, the TGI (LOX IMVI melanoma) was 7.67 µM and the TGI (HT29 colon) was 6.98 µM. The TGI (U251 CNS) was 25.1 µM, the TGI (SN12C renal) was 9.37 µM and the TGI (OVCAR-3 ovarian) was 7.96 µM. It also gave a TGI (SK-MEL-2 melanoma) of 18.1 µM, a TGI (MOLT-4 leukemia) of 6.69 µM and a TGI (DU-145 prostate) of 4.7 µM. It also gave a TGI (K-562 leukemia) of 4.62 µM, a TGI (UACC-62 melanoma) of 17.8 µM and a TGI (SK-MEL-5 melanoma) of 21.1 µM. For the same molecule, the TGI (HOP-92 NSCLC) was 12.5 µM and the TGI (TK-10 renal) was 14.1 µM.
